# From patent US7892350B2, “Sacrificial agents for fly ash concrete” (Boral Material Technologies Inc., priority 2003, dated 2011)
# Read-outs that look alike come from different tables or passages of the source.
# Assays:
# [1] = Air entrainment in mortars (ASTM C185-88); conditions: for decrease of variability (RSD values): fly ash mortars, Air 30 combined with the SA versus Air 30 alone
# Method: Air entrainment were measured in mortars containing portland cement only (control), or a combination of portland cement and fly ash in the ratio 70:30;
# The mix compositions are given in the Table below and the measurements were performed according to standard protocols described in ASTM C185-88
# [2] = Second sacrificial agent testing protocol: paste air measurements with DDBS (0.0125 wt %) and rating; conditions: for B1 + 0.0125% DDBS + 0.05% SA (air entrainment) / B1 + 0.0125% DDBS + 0.1% SA (air entrainment): B1 FA/cement paste; for PCA + 0.1% SA (level of air entrainment by the candidate sacrificial agent): Portland cement paste (PCA); for SA Rating (0-4): sacrificial agent overall rating index; for Overall performance rating (second protocol rating): key: 0: Fail; 1: Poor; 2: Good; 3: Preferred; 4: Most preferred; for SA Rating (0-4): key: 0: Fail; 1: Poor; 2: Good; 3: Preferred; 4: Most preferred
# Summary of the method: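 Air entrainment was measured in cement pastes of fixed composition and fluidity. The candidate agent was tested alone at 0.1 wt % in a cement-only paste. It was also tested at 0.05 and 0.1 wt % in a fly ash (B1)-cement paste with DDBS, where air recovery was calculated against the same paste without agent.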
# [3] = Hansch, C. et al. (1995), cited from earlier work
# [4] = 30:70 fly ash B1 (LOI 5.01%):cement mortar, 0.002 wt % Air 30 alone or +0.05 wt % SA
# [5] = 30:70 fly ash B1 (LOI 5.01%):cement mortar, 0.005 wt % Air 40 alone or +0.05 wt % SA
# [6] = 30:70 fly ash C1 (LOI 0.70%):cement mortar, 0.002 wt % Air 30 alone or +0.05 wt % SA
# [7] = 30:70 fly ash C1 (LOI 0.70%):cement mortar, 0.005 wt % Air 40 alone or +0.05 wt % SA
# [8] = 30:70 fly ash C2 (LOI 3.04%):cement mortar, 0.002 wt % Air 30 alone or +0.05 wt % SA
# [9] = 30:70 fly ash C2 (LOI 3.04%):cement mortar, 0.005 wt % Air 40 alone or +0.05 wt % SA
# [10] = 30:70 fly ash C3 (LOI 2.54%):cement mortar, 0.002 wt % Air 30 alone or +0.05 wt % SA
# [11] = 30:70 fly ash C3 (LOI 2.54%):cement mortar, 0.005 wt % Air 40 alone or +0.05 wt % SA
# [12] = 30:70 fly ash D (LOI […]):cement mortar, 0.002 wt % Air 30 alone or +0.05 wt % SA
# [13] = 30:70 fly ash D (LOI […]):cement mortar, 0.005 wt % Air 40 alone or +0.05 wt % SA
# [14] = 30:70 fly ash H1 (LOI 8.45%):cement mortar, 0.002 wt % Air 30 alone or +0.05 wt % SA
# [15] = 30:70 fly ash H1 (LOI 8.45%):cement mortar, 0.005 wt % Air 40 alone or +0.05 wt % SA
# [16] = 30:70 fly ash M1 (LOI […]):cement mortar, 0.002 wt % Air 30 alone or +0.05 wt % SA
# [17] = 30:70 fly ash M1 (LOI […]):cement mortar, 0.005 wt % Air 40 alone or +0.05 wt % SA
# [18] = 30:70 fly ash M2 (LOI 8.78%):cement mortar, 0.002 wt % Air 30 alone or +0.05 wt % SA
# [19] = 30:70 fly ash M2 (LOI 8.78%):cement mortar, 0.005 wt % Air 40 alone or +0.05 wt % SA
# [20] = 30:70 fly ash M3 (LOI 3.15%):cement mortar, 0.002 wt % Air 30 alone or +0.05 wt % SA
# [21] = 30:70 fly ash M3 (LOI 3.15%):cement mortar, 0.005 wt % Air 40 alone or +0.05 wt % SA
# [22] = 30:70 fly ash R (LOI 0.17%):cement mortar, 0.002 wt % Air 30 alone or +0.05 wt % SA
# [23] = 30:70 fly ash R (LOI 0.17%):cement mortar, 0.005 wt % Air 40 alone or +0.05 wt % SA
# [24] = PCA cement mortar, no fly ash, 0.0017 wt % Air 30 alone or +0.05 wt % SA
# [25] = PCA cement mortar, no fly ash, 0.004 wt % Air 40 alone or +0.05 wt % SA
# [26] = over the fly ash mortars of Table 12, 0.002 wt % Air 30 alone or +0.05 wt % SA
# [27] = over the fly ash mortars of Table 13, 0.005 wt % Air 40 alone or +0.05 wt % SA
smiles,measurement,setting,value
"OCCOc1ccccc1 [EGPE, Ethylene glycol phenyl ether]",Air entrainment,[1]; [4],3.6
same,Air entrainment,"[1]; 30:70 fly ash B1 (LOI 5.01%):cement mortar, 0.005 wt % Air 40 +0.1 wt % EGPE",9.3
same,Air entrainment,[1]; [5],5.4
same,Air entrainment,[1]; [6],4.7
same,Air entrainment,"[1]; 30:70 fly ash C1 (LOI 0.70%):cement mortar, 0.005 wt % Air 40 +0.1 wt % EGPE",12.6
same,Air entrainment,[1]; [7],6.6
same,Air entrainment,[1]; [8],6.9
same,Air entrainment,"[1]; 30:70 fly ash C2 (LOI 3.04%):cement mortar, 0.005 wt % Air 40 +0.1 wt % EGPE",12.4
same,Air entrainment,[1]; [9],8.8
same,Air entrainment,[1]; [10],5.9
same,Air entrainment,"[1]; 30:70 fly ash C3 (LOI 2.54%):cement mortar, 0.005 wt % Air 40 +0.1 wt % EGPE",9.8
same,Air entrainment,[1]; [11],8.0
same,Air entrainment,[1]; [12],14.9
same,Air entrainment,"[1]; 30:70 fly ash D (LOI […]):cement mortar, 0.005 wt % Air 40 +0.1 wt % EGPE",13.2
same,Air entrainment,[1]; [13],12.8
same,Air entrainment,[1]; [14],3.1
same,Air entrainment,"[1]; 30:70 fly ash H1 (LOI 8.45%):cement mortar, 0.005 wt % Air 40 +0.1 wt % EGPE",5.7
same,Air entrainment,[1]; [15],3.1
same,Air entrainment,[1]; [16],5.4
same,Air entrainment,"[1]; 30:70 fly ash M1 (LOI […]):cement mortar, 0.005 wt % Air 40 +0.1 wt % EGPE",12.7
same,Air entrainment,[1]; [17],8.0
same,Air entrainment,[1]; [18],2.8
same,Air entrainment,"[1]; 30:70 fly ash M2 (LOI 8.78%):cement mortar, 0.005 wt % Air 40 +0.1 wt % EGPE",6.7
same,Air entrainment,[1]; [19],4.9
same,Air entrainment,[1]; [20],7.6
same,Air entrainment,"[1]; 30:70 fly ash M3 (LOI 3.15%):cement mortar, 0.005 wt % Air 40 +0.1 wt % EGPE",18.3
same,Air entrainment,[1]; [21],10.2
same,Air entrainment,[1]; [22],13.5
same,Air entrainment,"[1]; 30:70 fly ash R (LOI 0.17%):cement mortar, 0.005 wt % Air 40 +0.1 wt % EGPE",15.2
same,Air entrainment,[1]; [23],13.5
same,Air entrainment,[1]; [24],14.0
same,Air entrainment,"[1]; PCA cement mortar, no fly ash, 0.004 wt % Air 40 +0.1 wt % EGPE",16.2
same,Air entrainment,[1]; [25],14.9
same,decrease of variability (RSD values),[1],approximately 50%
same,Average of air entrained,[1]; [26],6.8%
same,Average of air entrained,"[1]; over the fly ash mortars of Table 13, 0.005 wt % Air 40 +0.1 wt % EGPE",12%
same,Average of air entrained,[1]; [27],8.1%
same,Overall performance rating (second protocol rating),[2],4
same,B1 + 0.0125% DDBS + 0.05% SA (air entrainment),[2],6.9
same,B1 + 0.0125% DDBS + 0.1% SA (air entrainment),[2],8.1
same,PCA + 0.1% SA (level of air entrainment by the candidate sacrificial agent),[2],1.5
same,SA Rating (0-4),[2],4
same,Experimental LogKow,[3],1.16
same,Experimental LogKow,[3]; listed as 2-Phenoxyethanol,Experimental LogKow: 1.16
"O=S(=O)([O-])c1ccc2ccccc2c1.[Na+] [NS, Sodium 2-Naphthalene sulfonate]",Air entrainment,[1]; [4],4.0
same,Air entrainment,[1]; [5],5.6
same,Air entrainment,[1]; [6],4.3
same,Air entrainment,[1]; [7],7.2
same,Air entrainment,[1]; [8],5.9
same,Air entrainment,[1]; [9],7.5
same,Air entrainment,[1]; [10],4.8
same,Air entrainment,[1]; [11],7.8
same,Air entrainment,[1]; [12],11.4
same,Air entrainment,[1]; [13],12.6
same,Air entrainment,[1]; [14],2.7
same,Air entrainment,[1]; [15],3.0
same,Air entrainment,[1]; [16],5.8
same,Air entrainment,[1]; [17],8.2
same,Air entrainment,[1]; [18],2.8
same,Air entrainment,[1]; [19],5.0
same,Air entrainment,[1]; [20],6.9
same,Air entrainment,[1]; [21],10.0
same,Air entrainment,[1]; [22],12.0
same,Air entrainment,[1]; [23],13.7
same,Air entrainment,[1]; [24],13.4
same,Air entrainment,[1]; [25],14.8
same,decrease of variability (RSD values),[1],approximately 50%
same,Average of air entrained,[1]; [26],6.1%
same,Average of air entrained,[1]; [27],8.0%
same,Overall performance rating (second protocol rating),[2],3
same,B1 + 0.0125% DDBS + 0.05% SA (air entrainment),[2],4.4
same,B1 + 0.0125% DDBS + 0.1% SA (air entrainment),[2],5.3
same,PCA + 0.1% SA (level of air entrainment by the candidate sacrificial agent),[2],1.0
same,SA Rating (0-4),[2],3
